B1: IFNγ: cytokine used to stimulate B16F10 cells (protein, UniProt P01580 23-155, looked up)
Interferon gamma: HGTVIESLESLNNYFNSSGIDVEEKSLFLDIWRNWQKDGDMKILQSQIISFYLRLFEVLKDNQAISNNISVIESHLITTFFSNSKAKKDAFMSIAKFEVNNPQVQRQAFNELIRVVHQLLPESSLRKRKRSRC

Legend:
Assay type in all cases: cell-based, mouse
[1] = tested on: Otulin, Dusp6 and Nf1 knockout B16F10 cells; assay: Doxorubicin-induced cell death; conditions: Dusp6 or Nf1 inactivated B16F10-Cas9 cells vs control cells, 24 or 48 hours
Protocol: The knockout cell lines (GFP+) were mixed with control cells (GFP−) at 1:1 ratio. The mixture of cells was then seeded at 200,000 cells/well in a 6-well plate. Eighteen hours after seeding, different doses of doxorubicin (Sigma-Aldrich, D1515) as indicated in FIG. 11 were added to the cell culture (triplicate wells per condition). After 24 or 48 hours, cells were harvested and stained with DAPI (5 μg/ml) for 5 minutes in PBS with 2% FBS at room temperature. The ratio of GFP+/GFP−was determined by FACS (gated on DAPI− for live cells).

[2] = tested on: B16F10-Cas9 cells pulsed with SIINFEKL peptide, co-cultured with OT-I T cells; assay: Genome-scale CRISPR-Cas9 screen, selection with OT-I T cells; conditions: Table 3; B16F10-Cas9 cells pulsed with SIINFEKL, co-cultured with OT-I T cells 1:1 for one day; negative = depleted, positive = enriched
[3] = tested on: B16F10-Cas9 cells co-cultured with Pmel-1 T cells; assay: Genome-scale CRISPR-Cas9 screen, selection with Pmel-1 T cells; conditions: Table 3; B16F10-Cas9 cells pre-treated with IFNγ, co-cultured with Pmel-1 T cells 1:1 for three days; negative = depleted, positive = enriched
B16F10-Cas9 cells = assay: PD-L1 expression by FACS after IFNγ stimulation (Cas9 editing efficiency of B16F10-Cas9 clones); conditions: B16F10 tumor cells, IFNγ 10 ng/ml for 24 hours
Protocol: To acquire clones with high Cas9 activity, B16F10-Cas9 cells were single-cell sorted into 96-well plates. Multiple were infected with lentivirus driving expression of a gRNA specific for Cd274 and mCherry. Ten days post-infection, each individual clone was stimulated with 10 ng/ml of IFNγ for 24 hours and the expression of PD-L1 was determined by fluorescence-activated cells sorting (FACS) using an anti-Cd274 antibody (clone 10F.9G2, BioLegend, #124311). Cas9 efficiency was determined by the percentage of PD-L1 negative cells in the transduced (mCherry+) population.

Row | Molecule | sensitivity to doxorubicin induced cell death [1] | OT1 (sgRNA Log(2) fold change, OT-I selection versus control T cells) [2] | Pmel+ (sgRNA Log(2) fold change, Pmel-1 selection versus control T cells) [3] | PD-L1 expression (B16F10-Cas9 cells)
1 | COc1cccc2c1C(=O)c1c(O)c3c(c(O)c1C2=O)C[C@@](O)(C(=O)CO)C[C@@H]3O[C@H]1C[C@H](N)[C@H](O)[C@H](C)O1 [doxorubicin] | did not render them more sensitive | – | – | –
2 | TCTTAAAGCTACGGTGTAAG (chemistry not fully specified) | – | -2.41 | -0.87 | –
3 | TCTTCAGGAGAGAATACCAT (chemistry not fully specified) | – | 3.69 | 3.86 | –
4 | TCTTGAAAACTATAGTACTC (chemistry not fully specified) | – | -2.40 | -2.12 | –
5 | TGAAGCTAATGACCATGAGC (chemistry not fully specified) | – | -2.77 | -0.59 | –
6 | TGAATAAATCCATCAGACAG (chemistry not fully specified) | – | 2.46 | 9.92 | –
7 | TGAGTATACTTGAATTTGAG (chemistry not fully specified) | – | 5.51 | 3.55 | –
8 | TGATAATAGATAAACGACCA (chemistry not fully specified) | – | -3.36 | 0.05 | –
9 | TGATGAGCAGATTCTAACTT (chemistry not fully specified) | – | 3.81 | 5.03 | –
10 | TGATGCTGGCCTCTATACTG (chemistry not fully specified) | – | -3.28 | -1.90 | –
11 | TGCACAGCATACACTAGTGA (chemistry not fully specified) | – | -2.96 | -1.65 | –
12 | TGGAACCTCCTGATCCGCTG (chemistry not fully specified) | – | -4.60 | 0.12 | –
13 | TGGAATTATGGTCAAAGTAG (chemistry not fully specified) | – | -2.20 | 0.96 | –
14 | TGGACATGAGCCATATGTTG (chemistry not fully specified) | – | -0.14 | 3.35 | –
15 | TGGACCTCCGAAAAACATCT (chemistry not fully specified) | – | 3.78 | 5.37 | –
16 | TGGTCTAGTTACCATGCAAG (chemistry not fully specified) | – | -3.50 | -0.83 | –
17 | TGTAATGTAGGTCTCCCAGG (chemistry not fully specified) | – | -3.77 | -1.35 | –
18 | TGTGAATGCTATGACGAGCT (chemistry not fully specified) | – | -2.59 | 0.02 | –

Row | Molecule | sensitivity to doxorubicin induced cell death [1] | OT1 (sgRNA Log(2) fold change, OT-I selection versus control T cells) [2] | Pmel+ (sgRNA Log(2) fold change, Pmel-1 selection versus control T cells) [3] | PD-L1 expression (B16F10-Cas9 cells)
19 | TGTGATGTTAGATAAACAGA (chemistry not fully specified) | – | 1.50 | 7.91 | –
20 | TGTTCTAGGAAACTACATGG (chemistry not fully specified) | – | -2.76 | 1.10 | –
21 | TGTTTGCAGTTAGCAAAACG (chemistry not fully specified) | – | -2.49 | 0.00 | –
22 | TTAATGACGAGCTCGTGGAG (chemistry not fully specified) | – | 2.25 | 8.60 | –
23 | TTACACGACCCGAATAGCGA (chemistry not fully specified) | – | -2.14 | 3.22 | –
24 | TTACCCCCTACTACACTGGA (chemistry not fully specified) | – | -2.56 | -2.24 | –
25 | TTACTGAGGCTCGATTGGGA (chemistry not fully specified) | – | -3.59 | 0.41 | –
26 | TTAGTTCTGGCAAAGCGCCG (chemistry not fully specified) | – | -2.23 | -2.54 | –
27 | TTATTGAGTCAAGAAAAGGT (chemistry not fully specified) | – | -3.67 | -1.87 | –
28 | TTCAAAGCAAGGCTCTACTG (chemistry not fully specified) | – | -2.28 | -0.93 | –
29 | TTCAGATTCAGACATCAGAT (chemistry not fully specified) | – | -2.07 | 0.00 | –
30 | TTCAGGGTGAAATACGAGGA (chemistry not fully specified) | – | 3.43 | 5.32 | –
31 | TTCGGACAAATACGACGACG (chemistry not fully specified) | – | -2.32 | 0.00 | –
32 | TTGTCCGCGTTACTTCCCTG (chemistry not fully specified) | – | -2.50 | 0.07 | –
33 | TTGTGAGGCAAACTGAACGA (chemistry not fully specified) | – | -2.11 | -0.86 | –
34 | TTGTGCCTAAACAAAAAACA (chemistry not fully specified) | – | -2.52 | 0.85 | –
35 | TTTACAATCCTCCAAAGTCG (chemistry not fully specified) | – | -3.13 | -0.68 | –
36 | B1 | – | – | – | strong upregulation
